In PubChem BioAssay (NCI):
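Tested at 5 concentrations; 48 h exposure; 96-well plates; endpoints linearly interpolated, else capped at highest concentration. TGI is the concentration that stops growth completely.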

What was measured:
Assay in all cases: NCI tumour cell line growth inhibition, 48 h
M14 melanoma = tested on: M14 melanoma
ACHN renal = tested on: ACHN renal
786-0 renal = tested on: 786-0 renal
SNB-19 CNS = tested on: SNB-19 CNS
T-47D breast = tested on: T-47D breast
UACC-257 melanoma = tested on: UACC-257 melanoma
MALME-3M melanoma = tested on: MALME-3M melanoma
CAKI-1 renal = tested on: CAKI-1 renal
SW-620 colon = tested on: SW-620 colon
LOX IMVI melanoma = tested on: LOX IMVI melanoma
OVCAR-8 ovarian = tested on: OVCAR-8 ovarian
SK-MEL-2 melanoma = tested on: SK-MEL-2 melanoma
SN12C renal = tested on: SN12C renal
IGROV1 ovarian = tested on: IGROV1 ovarian
HCT-116 colon = tested on: HCT-116 colon
HOP-92 NSCLC = tested on: HOP-92 NSCLC
U251 CNS = tested on: U251 CNS
NCI/ADR-RES ovarian = tested on: NCI/ADR-RES ovarian
OVCAR-3 ovarian = tested on: OVCAR-3 ovarian
HOP-62 NSCLC = tested on: HOP-62 NSCLC
SK-MEL-28 melanoma = tested on: SK-MEL-28 melanoma
NCI-H522 lung = tested on: NCI-H522 lung
RPMI-8226 leukemia = tested on: RPMI-8226 leukemia
BT-549 breast = tested on: BT-549 breast
CCRF-CEM leukemia = tested on: CCRF-CEM leukemia
SK-OV-3 ovarian = tested on: SK-OV-3 ovarian
A498 renal = tested on: A498 renal
OVCAR-5 ovarian = tested on: OVCAR-5 ovarian
HT29 colon = tested on: HT29 colon
NCI-H226 lung = tested on: NCI-H226 lung
COLO 205 colon = tested on: COLO 205 colon
SF-268 CNS = tested on: SF-268 CNS
HS 578T breast = tested on: HS 578T breast
TK-10 renal = tested on: TK-10 renal
NCI-H23 lung = tested on: NCI-H23 lung
K-562 leukemia = tested on: K-562 leukemia
A549 NSCLC = tested on: A549 NSCLC
DU-145 prostate = tested on: DU-145 prostate
UACC-62 melanoma = tested on: UACC-62 melanoma
RXF 393 renal = tested on: RXF 393 renal
UO-31 renal = tested on: UO-31 renal
SF-295 CNS = tested on: SF-295 CNS
MDA-MB-231 breast = tested on: MDA-MB-231 breast
SR leukemia = tested on: SR leukemia
MDA-MB-435 = tested on: MDA-MB-435
EKVX NSCLC = tested on: EKVX NSCLC
SK-MEL-5 melanoma = tested on: SK-MEL-5 melanoma
MDA-N = tested on: MDA-N
HCT-15 colon = tested on: HCT-15 colon
SNB-75 CNS = tested on: SNB-75 CNS
PC-3 prostate = tested on: PC-3 prostate
OVCAR-4 ovarian = tested on: OVCAR-4 ovarian
MOLT-4 leukemia = tested on: MOLT-4 leukemia
KM12 colon = tested on: KM12 colon
SF-539 CNS = tested on: SF-539 CNS
MCF7 breast = tested on: MCF7 breast
HL-60(TB) leukemia = tested on: HL-60(TB) leukemia

Question: Which results are given for `O=[N+]([O-])c1ccc(N=Nc2c(O)ccc3cc(S(=O)(=O)O)cc(S(=O)(=O)O)c23)cc1`?
Answer: TGI (M14 melanoma): > 100 µM; TGI (ACHN renal): > 100 µM; TGI (786-0 renal): > 100 µM; TGI (SNB-19 CNS): > 100 µM; TGI (T-47D breast): > 100 µM; TGI (UACC-257 melanoma): > 100 µM; TGI (MALME-3M melanoma): > 100 µM; TGI (CAKI-1 renal): > 100 µM; TGI (SW-620 colon): > 100 µM; TGI (LOX IMVI melanoma): > 100 µM; TGI (OVCAR-8 ovarian): > 100 µM; TGI (SK-MEL-2 melanoma): > 100 µM; TGI (SN12C renal): > 100 µM; TGI (IGROV1 ovarian): > 100 µM; TGI (HCT-116 colon): > 100 µM; TGI (HOP-92 NSCLC): > 100 µM; TGI (U251 CNS): > 100 µM; TGI (NCI/ADR-RES ovarian): > 100 µM; TGI (OVCAR-3 ovarian): > 100 µM; TGI (HOP-62 NSCLC): > 100 µM; TGI (SK-MEL-28 melanoma): > 100 µM; TGI (NCI-H522 lung): > 100 µM; TGI (RPMI-8226 leukemia): > 100 µM; TGI (BT-549 breast): > 100 µM; TGI (CCRF-CEM leukemia): > 100 µM; TGI (SK-OV-3 ovarian): > 100 µM; TGI (A498 renal): > 100 µM; TGI (OVCAR-5 ovarian): > 100 µM; TGI (HT29 colon): > 100 µM; TGI (NCI-H226 lung): > 100 µM; TGI (COLO 205 colon): > 100 µM; TGI (SF-268 CNS): > 100 µM; TGI (HS 578T breast): > 100 µM; TGI (TK-10 renal): > 100 µM; TGI (NCI-H23 lung): > 100 µM; TGI (K-562 leukemia): > 100 µM; TGI (A549 NSCLC): > 100 µM; TGI (DU-145 prostate): > 100 µM; TGI (UACC-62 melanoma): > 100 µM; TGI (RXF 393 renal): > 100 µM; TGI (UO-31 renal): > 100 µM; TGI (SF-295 CNS): > 100 µM; TGI (MDA-MB-231 breast): > 100 µM; TGI (SR leukemia): > 100 µM; TGI (MDA-MB-435): > 100 µM; TGI (EKVX NSCLC): > 100 µM; TGI (SK-MEL-5 melanoma): > 100 µM; TGI (MDA-N): > 100 µM; TGI (HCT-15 colon): > 100 µM; TGI (SNB-75 CNS): > 100 µM; TGI (PC-3 prostate): > 100 µM; TGI (OVCAR-4 ovarian): > 100 µM; TGI (MOLT-4 leukemia): > 100 µM; TGI (KM12 colon): > 100 µM

Question: What does the source list for `COc1cc(/C=N/NC(=O)c2ccc(NC(C)=O)cc2OC)ccc1O`?
Answer: TGI (M14 melanoma): > 100 µM; TGI (ACHN renal): > 100 µM; TGI (SF-539 CNS): > 100 µM; TGI (786-0 renal): > 100 µM; TGI (SNB-19 CNS): > 100 µM; TGI (T-47D breast): > 100 µM; TGI (MALME-3M melanoma): > 100 µM; TGI (CAKI-1 renal): > 100 µM; TGI (SW-620 colon): > 100 µM; TGI (MCF7 breast): > 100 µM; TGI (LOX IMVI melanoma): > 100 µM; TGI (OVCAR-8 ovarian): > 100 µM; TGI (SK-MEL-2 melanoma): 93.3 µM; TGI (SN12C renal): > 100 µM; TGI (IGROV1 ovarian): > 100 µM; TGI (HCT-116 colon): > 100 µM; TGI (HOP-92 NSCLC): 54.3 µM; TGI (NCI/ADR-RES ovarian): > 100 µM; TGI (OVCAR-3 ovarian): > 100 µM; TGI (SK-MEL-28 melanoma): > 100 µM; TGI (NCI-H522 lung): > 100 µM; TGI (RPMI-8226 leukemia): > 100 µM; TGI (BT-549 breast): > 100 µM; TGI (CCRF-CEM leukemia): > 100 µM; TGI (SK-OV-3 ovarian): > 100 µM; TGI (A498 renal): > 100 µM; TGI (OVCAR-5 ovarian): > 100 µM; TGI (HT29 colon): > 100 µM; TGI (NCI-H226 lung): > 100 µM; TGI (COLO 205 colon): > 100 µM; TGI (SF-268 CNS): > 100 µM; TGI (HS 578T breast): 81.6 µM; TGI (NCI-H23 lung): > 100 µM; TGI (K-562 leukemia): > 100 µM; TGI (A549 NSCLC): > 100 µM; TGI (DU-145 prostate): > 100 µM; TGI (UACC-62 melanoma): > 100 µM; TGI (RXF 393 renal): > 100 µM; TGI (UO-31 renal): > 100 µM; TGI (SF-295 CNS): > 100 µM; TGI (SR leukemia): > 100 µM; TGI (MDA-MB-435): > 100 µM; TGI (EKVX NSCLC): > 100 µM; TGI (SK-MEL-5 melanoma): > 100 µM; TGI (MDA-N): > 100 µM; TGI (HCT-15 colon): > 100 µM; TGI (SNB-75 CNS): 73 µM; TGI (HL-60(TB) leukemia): > 100 µM; TGI (PC-3 prostate): > 100 µM; TGI (OVCAR-4 ovarian): > 100 µM; TGI (MOLT-4 leukemia): > 100 µM; TGI (KM12 colon): > 100 µM
